Laboratory results reported in US20100075907A1, “NEUROMEDIN U RECEPTOR AGONISTS AND USES THEREOF” (priority 2006, published 2010).
pEC50, pIC50: −log10 of the molar value. Non-standard residues stand in square brackets, D forms with d. Residues, ends and D or L forms follow the SMILES beside them. No end group written: not given here. *: point of attachment. X1 = CC(C)CCC[C@@H](C)[C@H]1CC[C@H]2[C@@H]3CC=C4C[C@@H](OC(=O)C*)CC[C@]4(C)[C@H]3CC[C@]12C; Succinimide(1-Et,3-yl) = CCN1C(=O)CC(*)C1=O

Assays:
Format in all cases: cell-based
Mouse NMUR1-CTG = target: T1, Mouse NMUR1-CTG (Mus musculus, UniProt O55040); assay: FLIPR calcium mobilization assay, mouse NMUR1-CTG; parameters: expressed in transfected cells; host or cells: FLP-In CHO or HEK-293 FLP-In cells (pcDNA5); conditions: for pIC50: functional data
T1 sequence (O55040 1-428): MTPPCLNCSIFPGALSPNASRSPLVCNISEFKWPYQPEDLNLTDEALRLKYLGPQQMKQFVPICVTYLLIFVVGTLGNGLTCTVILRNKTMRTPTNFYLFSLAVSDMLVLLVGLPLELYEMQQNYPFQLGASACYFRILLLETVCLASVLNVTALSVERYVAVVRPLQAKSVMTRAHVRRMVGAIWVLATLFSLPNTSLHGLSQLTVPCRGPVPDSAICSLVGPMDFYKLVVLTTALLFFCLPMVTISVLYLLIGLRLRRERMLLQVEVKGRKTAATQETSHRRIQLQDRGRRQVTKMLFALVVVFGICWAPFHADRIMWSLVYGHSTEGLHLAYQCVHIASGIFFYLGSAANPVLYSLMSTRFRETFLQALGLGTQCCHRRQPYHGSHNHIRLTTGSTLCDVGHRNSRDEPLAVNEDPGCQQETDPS
Source text: (§1) Human, mouse or rat cDNAs encoding NMUR1 or NMUR2 (as described in Howard et al. Nature 406: 70-74 (2000) were subcloned in pcDNA5 (Invitrogen) and transfected into FLP-In CHO cells and HEK-293 FLP-In cells purchased from Invitrogen (Carlsbad, Calif.) using lipofectamine (Invitrogen). The Flp-In system allows integration and expression of a particular gene of interest at a specific genomic location utilizing the Flp recombinase from yeast. The transfected cells were selected by growth in medium containing 200 μg/mL hygromycin (Invitrogen). Populations were frozen at early passage numbers, and these stocks were used for further studies. Stable clones that expressed the mRNAs were identified functionally by FLIPR as well as by RT-PCR. […] Two different rodent NMUR1 cell lines were thus generated: one with the codon as predicted from the genomic databases and another cell line with an engineered methionine (ATG) as the start codon. Additionally, stable cell lines expressing the human receptors were generated in HEK-293/aeq17 cells which stably express the aequorin gene under the CMV promoter. The human NMUR2 cDNA was cloned into pcDNA3.1 and human NMUR1 was subcloned into pIRES-puro (Clontech, Mountain View, Calif.), after transfection cells were selected in media containing G418 and either hygromycin (NMUR2) or puromycin (NMUR1).
(§2) The NMU receptors signal primarily through Gαq/11 proteins; therefore calcium mobilization assays can be utilized for functional activity.
(§3) Stable cell lines expressing human and or rodent NMUR1 or human NMUR2 receptors were plated at a density of 12,000 cells per well overnight on poly-lysine coated 384-well black-walled plates. The following day, the media was removed from the plates and the cells were subsequently loaded with Fluo-3 (Molecular Probes), a calcium sensitive dye, diluted in FLIPR buffer (1× Hank's buffered saline containing 20 mM HEPES, 0.1% BSA, 2.5 mM probenecid (Sigma) and 1.6 mM TR40). All reagents are from Invitrogen unless otherwise noted. Peptide stocks were resuspended in DMSO at a stock concentration of 2 mM and diluted in FLIPR buffer on the day of the experiment to a 4 μM working stock solution.
(§4) After a 90 minute incubation at room-temperature, cell plates were loaded onto a FLIPR (Molecular Devices) to monitor cellular fluorescence (excitation=488 nm; emission=540 nm) before and after compound/peptide addition. Eight to twelve point dose responses were tested on NMUR-expressing cell lines using FLIPR with 1 μM peptide as the highest dose. The response after peptide addition was taken as the maximum fluorescence units minus the fluorescence immediately prior to stimulation for each well. EC50 values were calculated using GraphPad Prism (San Diego, Calif.) software.
(§5) In vitro responses of Neuromedin U receptor agonists (NMU1 to NMU25) in the FLIPR assay for human (Table 3), mouse (Table 4) and rat (Table 5) NMUR1 and NMUR2. EC50s are reported in nM values. Percent activity refers to the maximum response at 1 μM compared to the hNMU-25 response at the same concentration. NT=not tested.

rat NMUR1-TTG = target: T2, rat NMUR1-TTG (Rattus norvegicus, UniProt Q9JJI5); assay: FLIPR calcium mobilization assay, rat NMUR1-TTG; parameters: expressed in transfected cells; host or cells: FLP-In CHO or HEK-293 FLP-In cells (pcDNA5); conditions: functional, rat R1-TTG, relative to native hNMU responses
T2 sequence (Q9JJI5 1-425): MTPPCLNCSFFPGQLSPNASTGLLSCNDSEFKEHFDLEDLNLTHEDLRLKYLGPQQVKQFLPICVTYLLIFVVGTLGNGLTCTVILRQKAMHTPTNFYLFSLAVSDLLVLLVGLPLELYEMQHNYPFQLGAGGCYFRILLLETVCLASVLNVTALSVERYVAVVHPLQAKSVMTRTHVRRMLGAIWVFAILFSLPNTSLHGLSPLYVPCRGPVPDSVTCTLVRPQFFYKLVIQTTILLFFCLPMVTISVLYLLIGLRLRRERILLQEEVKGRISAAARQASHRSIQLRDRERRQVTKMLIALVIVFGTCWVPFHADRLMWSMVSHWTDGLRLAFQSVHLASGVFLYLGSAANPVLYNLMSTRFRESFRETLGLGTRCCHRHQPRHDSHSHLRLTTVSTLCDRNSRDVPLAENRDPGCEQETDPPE
Source text: as §1, §2, §3, §4, §5

hNMUR1 = target: T3, hNMUR1 (Homo sapiens, UniProt Q9HB89); assay: FLIPR calcium mobilization assay, human NMUR1; parameters: expressed in transfected cells; host or cells: FLP-In CHO or HEK-293 FLP-In cells (pcDNA5); HEK-293/aeq17 lines (pIRES-puro) were also made; conditions: for pEC50: FLIPR
T3 sequence (Q9HB89 1-426): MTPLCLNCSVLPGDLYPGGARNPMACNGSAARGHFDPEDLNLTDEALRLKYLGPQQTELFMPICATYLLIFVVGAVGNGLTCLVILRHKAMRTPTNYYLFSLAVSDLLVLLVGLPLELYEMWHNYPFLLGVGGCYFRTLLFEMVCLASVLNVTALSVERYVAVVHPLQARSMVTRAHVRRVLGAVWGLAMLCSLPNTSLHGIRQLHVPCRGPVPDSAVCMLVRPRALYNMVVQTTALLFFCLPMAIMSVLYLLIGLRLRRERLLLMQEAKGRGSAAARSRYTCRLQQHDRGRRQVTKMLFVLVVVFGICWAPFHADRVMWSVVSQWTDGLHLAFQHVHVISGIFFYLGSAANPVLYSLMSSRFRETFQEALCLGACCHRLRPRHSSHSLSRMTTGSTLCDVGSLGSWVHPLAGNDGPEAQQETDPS
Source text: as §1, §2, §3, §4, §5

[1] = maximum response at 1 μM compared to hNMU-25, mouse NMUR1-CTG
[2] = maximum response at 1 μM compared to hNMU-25 response at same concentration, human NMUR1

| Molecule | % Activity (Mouse NMUR1-CTG; [1]) [%] | % Activity (hNMUR1; [2]) [%] | also measured |
| --- | --- | --- | --- |
| CC(C)C[C@@H](NC(=O)[C@H](Cc1ccccc1)NC(=O)[C@H](Cc1ccc(O)cc1)NC(=O)CNC(=O)[C@H](CCCNC(=N)N)NC(=O)[C@H](CO)NC(=O)[C@H](CCC(N)=O)NC(=O)[C@H](CO)NC(=O)[C@H](C)NC(=O)[C@H](Cc1ccccc1)NC(=O)[C@@H]1CCCN1C(=O)[C@H](CO)NC(=O)[C@H](CCC(N)=O)NC(=O)[C@H](Cc1ccccc1)NC(=O)[C@H](CCC(=O)O)NC(=O)[C@H](CCC(=O)O)NC(=O)[C@H](CC(=O)O)NC(=O)[C@@H](NC(=O)[C@H](CCCNC(=N)N)NC(=O)[C@@H](N)Cc1ccccc1)C(C)C)C(=O)N[C@@H](Cc1c[nH]c2ccccc12)C(=O)N[C@@H](CCCNC(=N)N)C(=O)N1CCC[C@H]1C(=O)N[C@@H](CCCNC(=N)N)C(=O)N[C@@H](CC(N)=O)C(N)=O [Agonist H] (H-FRVDEEFQSPFASQSRGYF[dL]WRPRN-NH2; N-terminus assumed) |  |  | pIC50 (Mouse NMUR1-CTG; mouse R1-CTG): 7.18; % Activity (Mouse NMUR1-CTG; functional, mouse R1-CTG, relative to native hNMU responses): 77%; % Activity (rat NMUR1-TTG): 91%; % Activity (hNMUR1; functional, human R1, relative to native hNMU responses): 90% |
| CCN1C(=O)CC(SC[C@H](NC(C)=O)C(=O)NCC(=O)N[C@@H](Cc2ccc(O)cc2)C(=O)N[C@@H](Cc2ccccc2)C(=O)N[C@@H](CC(C)C)C(=O)N[C@@H](Cc2ccccc2)C(=O)N[C@@H](CCCNC(=N)N)C(=O)N2CCC[C@H]2C(=O)N[C@@H](CCCNC(=N)N)C(=O)N[C@@H](CC(N)=O)C(N)=O)C1=O (stereo partly shown) [NMU6] (Ac-C(Succinimide(1-Et,3-yl))GYFLFRPRN-NH2) | 100 | 96.7 |  |
| CCN1C(=O)CC(SC[C@H](NC(C)=O)C(=O)N[C@@H](Cc2ccccc2)C(=O)N[C@@H](CCCNC(=N)N)C(=O)N[C@H](C(=O)N[C@@H](CC(=O)O)C(=O)N[C@@H](CCC(=O)O)C(=O)N[C@@H](CCC(=O)O)C(=O)N[C@@H](Cc2ccccc2)C(=O)N[C@@H](CCC(N)=O)C(=O)N[C@@H](CO)C(=O)N2CCC[C@H]2C(=O)N[C@@H](Cc2ccccc2)C(=O)N[C@@H](C)C(=O)N[C@@H](CO)C(=O)N[C@@H](CCC(N)=O)C(=O)N[C@@H](CO)C(=O)N[C@@H](CCCNC(=N)N)C(=O)NCC(=O)N[C@@H](Cc2ccc(O)cc2)C(=O)N[C@@H](Cc2ccccc2)C(=O)N[C@@H](CC(C)C)C(=O)N[C@@H](Cc2ccccc2)C(=O)N[C@@H](CCCNC(=N)N)C(=O)N2CCC[C@H]2C(=O)N[C@@H](CCCNC(=N)N)C(=O)N[C@@H](CC(N)=O)C(N)=O)C(C)C)C1=O (stereo partly shown) [NMU8] (Ac-C(Succinimide(1-Et,3-yl))FRVDEEFQSPFASQSRGYFLFRPRN-NH2) | 100 | 99.1 |  |
| CC(=O)N[C@@H](CSCC(=O)O[C@H]1CC[C@@]2(C)C(=CC[C@H]3[C@@H]4CC[C@H]([C@H](C)CCCC(C)C)[C@@]4(C)CC[C@@H]32)C1)C(=O)NCC(=O)N[C@@H](Cc1ccc(O)cc1)C(=O)N[C@@H](Cc1ccccc1)C(=O)N[C@@H](CC(C)C)C(=O)N[C@@H](Cc1ccccc1)C(=O)N[C@@H](CCCNC(=N)N)C(=O)N1CCC[C@H]1C(=O)N[C@@H](CCCNC(=N)N)C(=O)N[C@@H](CC(N)=O)C(N)=O [NMU11] (Ac-C(X1)GYFLFRPRN-NH2) | 65.0 | 20.6 |  |
| Ac-C2FRVDEEFQSPFASQSRGYFLFRPRN-CONH2 [NMU9] ({Ac-C(PEG 40 kDa)}-FRVDEEFQSPFASQSRGYFLFRPRN-NH2) [C2 = Cys(PEG)240 kDa from Nektar (mPEG2-MAL-40 k)] |  | 94.4 | pEC50 (hNMUR1; human NMUR1): 7.30 |
| Ac-FRVDEEFQSPFASQSRGYFLFRPRN-NH2 [NMU2] | 100 | 99.0 | pEC50 (hNMUR1; human NMUR1): 8.26 |
| Ac-FRVDEEFQSPFASQSRPYFLFRPRN-NH2 [NMU5] | 100 | 98.1 |  |
| GYFLFRPRN-NH2 [NMU3] | 100 | 98.9 |  |
| H-FRVDEEFQSPFASQSRGYFLFRPRN-NH2 [hNMU-25, reference compound] |  |  | pIC50 (Mouse NMUR1-CTG; mouse R1-CTG): 8.54 |
| H-FRVDEEFQSPFASQSRPYFLFRPRN-NH2 [NMU4] | 100 | 97.0 |  |
